Assay results taken from patent US10227357B2, “Compounds and methods for kinase modulation, and indications therefor” (Plexxikon Inc., priority 2012, dated 2019).

Columns and labels:
c-kit kinase = target: T1, c-kit kinase (Homo sapiens, UniProt P10721); test: c-Kit biochemical assay, AlphaScreen, 10 μM ATP; settings: c-kit biochemical inhibitory activity; read-out: Biochemical activity (IC50 μM) Kit
T1 construct: The c-kit (or kinase domain thereof) is an active kinase in AlphaScreen; poly-Histidine tag (in-house protein only) (cleaved yes); host or cells: E. coli BL21(DE3)RIL, co-expressed with PTP1B
Protocol: IC50 values are determined with respect to inhibition of c-Kit kinase activity, where inhibition of phosphorylation of a peptide substrate is measured as a function of compound concentration. Compounds to be tested were dissolved in DMSO to a concentration of 20 mM. These were diluted 30 μl into 120 μl of DMSO (4 mM) and 1 μl was added to an assay plate. These were then serially diluted 1:3 (50 μl to 100 μl DMSO) for a total of 8 points. Plates were prepared such that each kinase reaction is 20 μl in 1× kinase buffer (50 mM HEPES, pH 7.2, 5 mM MgCl2, 5 mM MnCl2, 0.01% NP-40, 0.2% BSA), 5% DMSO and 10 μM ATP. […] C-kit kinase was at 0.1 ng per sample. After incubation of the kinase reaction for 1 hour at room temperature, 5 μl of donor beads (Streptavidin coated beads (Perkin Elmer Life Science) final concentration 1 μg/ml) in stop buffer (50 mM EDTA in 1× kinase buffer) was added, the sample was mixed and incubated for 20 minutes at room temperature before adding 5 μl of acceptor beads (PY20 coated beads (Perkin Elmer Life Science) final concentration 1 μg/ml) in stop buffer. The samples were incubated for 60 minutes at room temperature and the signal per well was read on AlphaQuest reader. […] The signal vs. compound concentration was used to determine the IC50.
Complementary DNA cloned from various human tissues were purchased from Invitrogen, and these were used as substrates in the PCR reactions. Specific custom synthetic oligonucleotide primers were designed to initiate the PCR product, and also to provide the appropriate restriction enzyme cleavage sites for ligation with the plasmids. The entire sequence encoding the enzyme was made through a gene synthesis procedure, using custom synthetic oligonucleotides covering the entire coding sequence (Invitrogen, see below).
The plasmid used for ligation with the kinase-encoding inserts was derivative of pET (Novagen) for expression using E. coli. The Kit kinase was engineered to include a Histidine tag for purification using metal affinity chromatography. The kinase-encoding plasmid was engineered as bicistronic mRNA to co-express a second protein that modifies the kinase protein during its expression in the host cell. Protein tyrosine phosphatase 1B (PTP), was co-expressed for dephosphorylation of the phospho-Tyrosines.
For protein expression, the plasmid containing the Kit gene was transformed into E. coli strains BL21(DE3)RIL and transformants selected for growth on LB agar plates containing appropriate antibiotics. Single colonies were grown overnight at 37° C. in 200 ml TB (Terrific broth) media. 16×1 L of fresh TB media in 2.8 L flasks were inoculated with 10 ml of overnight culture and grown with constant shaking at 37° C. Once cultures reached an absorbance of 1.0 at 600 nm, IPTG was added and cultures were allowed to grow for a further 12 to 18 hrs at temperatures ranging from 12-30° C. Cells were harvested by centrifugation and pellets frozen at […] until ready for lysis.
For protein Purification; frozen E. coli cell pellets were resuspended in lysis buffer and lysed using standard mechanical methods. Protein was purified via poly-Histidine tags using immobilized metal affinity purification IMAC. The Kit kinase was purified using a 3 step purification process utilizing; IMAC, size exclusion chromatography and ion exchange chromatography. The poly-Histidine tag was removed using Thrombin (Calbiochem).

c-kit mutant D816V = target: T2, c-kit mutant D816V (Homo sapiens, UniProt P10721, D816V/DEL694-753); test: c-Kit mutant D816V biochemical assay, AlphaScreen; settings: c-kit D816V biochemical inhibitory activity; read-out: Biochemical activity (IC50 μM) Kit D816V
T2 construct: residues 551-934, kinase insertion domain residues 694-753 deleted; 6x-histidine (N); made in house; host or cells: E. coli Arctic Express (DE3) RIL (Stratagene)
Procedure, shortened: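 Eight-point, threefold compound series incubated 30 min at room temperature with E. coli-produced D816V kinase, 10 μM ATP, Mg2+/Mn2+ HEPES buffer pH 7.2 and 5% DMSO. After EDTA stop, streptavidin and anti-phosphotyrosine (PY20) AlphaScreen beads gave the read-out, and IC50 was fitted from the concentration–signal curve.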

T2 sequence (P10721 with tags, fused parts or gaps DEL694-753/D816V): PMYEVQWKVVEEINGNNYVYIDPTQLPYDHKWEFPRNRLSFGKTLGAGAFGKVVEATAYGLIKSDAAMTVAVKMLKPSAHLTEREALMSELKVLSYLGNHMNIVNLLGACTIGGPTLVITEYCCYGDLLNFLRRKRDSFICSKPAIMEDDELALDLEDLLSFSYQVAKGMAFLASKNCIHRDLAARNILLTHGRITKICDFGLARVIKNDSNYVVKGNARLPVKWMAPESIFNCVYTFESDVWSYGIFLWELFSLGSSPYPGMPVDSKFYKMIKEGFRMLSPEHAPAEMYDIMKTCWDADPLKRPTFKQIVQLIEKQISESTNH
T1 sequence (P10721 26-976): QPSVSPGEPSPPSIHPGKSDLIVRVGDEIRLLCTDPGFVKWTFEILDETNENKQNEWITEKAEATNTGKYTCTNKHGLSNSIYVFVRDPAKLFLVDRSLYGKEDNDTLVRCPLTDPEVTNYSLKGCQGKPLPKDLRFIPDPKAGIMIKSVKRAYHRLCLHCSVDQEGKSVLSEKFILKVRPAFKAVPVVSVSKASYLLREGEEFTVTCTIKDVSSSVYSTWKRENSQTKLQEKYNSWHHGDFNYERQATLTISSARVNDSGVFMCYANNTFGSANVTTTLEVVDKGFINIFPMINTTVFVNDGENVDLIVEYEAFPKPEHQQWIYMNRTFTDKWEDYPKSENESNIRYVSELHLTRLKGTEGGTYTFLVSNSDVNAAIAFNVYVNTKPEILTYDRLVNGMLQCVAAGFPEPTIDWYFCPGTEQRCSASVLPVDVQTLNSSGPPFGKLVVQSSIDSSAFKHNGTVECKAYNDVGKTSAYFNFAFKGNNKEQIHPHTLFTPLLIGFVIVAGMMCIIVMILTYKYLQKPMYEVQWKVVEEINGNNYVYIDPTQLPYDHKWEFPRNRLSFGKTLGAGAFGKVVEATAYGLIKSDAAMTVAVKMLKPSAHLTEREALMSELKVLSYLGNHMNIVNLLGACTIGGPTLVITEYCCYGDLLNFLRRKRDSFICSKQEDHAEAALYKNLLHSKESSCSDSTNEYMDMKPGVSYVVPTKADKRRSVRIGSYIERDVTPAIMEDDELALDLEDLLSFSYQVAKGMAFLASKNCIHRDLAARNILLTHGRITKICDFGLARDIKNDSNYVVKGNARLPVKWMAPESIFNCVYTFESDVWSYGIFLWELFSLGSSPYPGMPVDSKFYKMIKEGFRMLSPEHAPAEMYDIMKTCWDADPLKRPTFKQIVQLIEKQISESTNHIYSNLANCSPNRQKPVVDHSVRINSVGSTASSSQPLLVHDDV

| Compound | IC50 (c-kit kinase) | IC50 (c-kit mutant D816V) |
| --- | --- | --- |
| C[C@H]1CN(c2ncnc3[nH]c(-c4ccncc4)cc23)CCN1C(=O)Nc1ccc(OC(F)(F)F)cc1 [P-0043, (2S)-2-methyl-4-[6-(4-pyridyl)-7H-pyrrolo[2,3-d]pyrimidin-4-yl]-N-[4-(trifluoromethoxy)phenyl]piperazine-1-carboxamide] | 0.0001 to 1 µM |  |
| C[C@H]1CN(c2ncnc3[nH]c(-c4ccncc4)cc23)CCN1C(=O)Nc1ccc(N(C)C)cc1 [P-0046, (2S)-N-(4-dimethylaminophenyl)-2-methyl-4-[6-(4-pyridyl)-7H-pyrrolo[2,3-d]pyrimidin-4-yl]piperazine-1-carboxamide] | 1 to 10 µM |  |
| CN(C)c1ccc(NC(=O)N2CCN(c3ncnc4[nH]ccc34)CC2)cc1 [P-0132, N-(4-dimethylaminophenyl)-4-(7H-pyrrolo[2,3-d]pyrimidin-4-yl)piperazine-1-carboxamide] | 1 to 10 µM |  |
| N#Cc1c[nH]c2ncnc(N3CCN(C(=O)NCc4ccc(F)cc4)CC3)c12 [P-0158, 4-(5-cyano-7H-pyrrolo[2,3-d]pyrimidin-4-yl)-N-[(4-fluorophenyl)methyl]piperazine-1-carboxamide] | 10 to 200 µM |  |
| COc1ccc(NC(=O)N2CCN(c3ncnc4[nH]ccc34)CC2)cc1OC [P-0173, N-(3,4-dimethoxyphenyl)-4-(7H-pyrrolo[2,3-d]pyrimidin-4-yl)piperazine-1-carboxamide] | 10 to 200 µM |  |
| O=C(Nc1ccc(F)c(F)c1)N1CCN(c2ncnc3[nH]ccc23)CC1 [P-0175, N-(3,4-difluorophenyl)-4-(7H-pyrrolo[2,3-d]pyrimidin-4-yl)piperazine-1-carboxamide] | 10 to 200 µM |  |
| C[C@H](NC(=O)N1CCN(c2ncnc3[nH]c(-c4ccc(F)cc4)cc23)CC1)c1ccc(Cl)cc1 [P-0178, N-[(1S)-1-(4-chlorophenyl)ethyl]-4-[6-(4-fluorophenyl)-7H-pyrrolo[2,3-d]pyrimidin-4-yl]piperazine-1-carboxamide] | 10 to 200 µM |  |
| O=C(NCc1ccc(C(F)(F)F)nc1)N1CCN(c2ncnc3[nH]c(-c4ccc(Cl)cc4)cc23)CC1 [P-0180, 4-[6-(4-chlorophenyl)-7H-pyrrolo[2,3-d]pyrimidin-4-yl]-N-[[6-(trifluoromethyl)-3-pyridyl]methyl]piperazine-1-carboxamide] | 10 to 200 µM |  |
| COc1ccc(S(=O)(=O)N2CCN(c3ncnc4[nH]ccc34)CC2)c(N)c1 [P-0190, 5-methoxy-2-[4-(7H-pyrrolo[2,3-d]pyrimidin-4-yl)piperazin-1-yl]sulfonyl-aniline] | 10 to 200 µM |  |
| O=C(Nc1ccccc1)c1cc2c(N3CCN(C(=O)NCc4ccc(F)cc4)CC3)ncnc2[nH]1 [P-0193, 4-[4-[(4-fluorophenyl)methylcarbamoyl]piperazin-1-yl]-N-phenyl-7H-pyrrolo[2,3-d]pyrimidine-6-carboxamide] | 10 to 200 µM |  |
| CCCC(=O)N1CCN(c2ncnc3[nH]ccc23)CC1 [P-0194, 1-[4-(7H-pyrrolo[2,3-d]pyrimidin-4-yl)piperazin-1-yl]butan-1-one] | 10 to 200 µM |  |
| O=C(C1CCCCC1)N1CCN(c2ncnc3[nH]ccc23)CC1 [P-0195, cyclohexyl-[4-(7H-pyrrolo[2,3-d]pyrimidin-4-yl)piperazin-1-yl]methanone] | 10 to 200 µM |  |
| O=C(C1CCCC1)N1CCN(c2ncnc3[nH]ccc23)CC1 [P-0196, cyclopentyl-[4-(7H-pyrrolo[2,3-d]pyrimidin-4-yl)piperazin-1-yl]methanone] | 10 to 200 µM |  |
| CCc1ccc(C(=O)N2CCN(c3ncnc4[nH]ccc34)CC2)cc1 [P-0197, (4-ethylphenyl)-[4-(7H-pyrrolo[2,3-d]pyrimidin-4-yl)piperazin-1-yl]methanone] | 1 to 10 µM |  |
| O=C(c1ccccc1)N1CCN(c2ncnc3[nH]ccc23)CC1 [P-0198, phenyl-[4-(7H-pyrrolo[2,3-d]pyrimidin-4-yl)piperazin-1-yl]methanone] | 10 to 200 µM |  |
| CCCS(=O)(=O)N1CCN(c2ncnc3[nH]ccc23)CC1 [P-0199, 4-(4-propylsulfonylpiperazin-1-yl)-7H-pyrrolo[2,3-d]pyrimidine] | 10 to 200 µM |  |
| O=S(=O)(c1ccccc1)N1CCN(c2ncnc3[nH]ccc23)CC1 [P-0200, 4-[4-(benzenesulfonyl)piperazin-1-yl]-7H-pyrrolo[2,3-d]pyrimidine] | 10 to 200 µM |  |
| CCOc1ccc(NC(=O)N2CCN(c3ncnc4[nH]ccc34)CC2)cc1 [P-0201, N-(4-ethoxyphenyl)-4-(7H-pyrrolo[2,3-d]pyrimidin-4-yl)piperazine-1-carboxamide] | 1 to 10 µM |  |
| CCc1ccc(NC(=O)N2CCN(c3ncnc4[nH]ccc34)CC2)cc1 [P-0202, N-(4-ethylphenyl)-4-(7H-pyrrolo[2,3-d]pyrimidin-4-yl)piperazine-1-carboxamide] | 10 to 200 µM |  |
| CCCNC(=O)N1CCN(c2ncnc3[nH]ccc23)CC1 [P-0203, N-propyl-4-(7H-pyrrolo[2,3-d]pyrimidin-4-yl)piperazine-1-carboxamide] | 10 to 200 µM |  |
| C[C@H](NC(=O)N1CCN(c2ncnc3[nH]c(-c4ccc(C#N)cc4)cc23)CC1(C)C)c1cccc(OC(F)F)c1 [P-0698, 4-[6-(4-cyanophenyl)-7H-pyrrolo[2,3-d]pyrimidin-4-yl]-N-[(1S)-1-[3-(difluoromethoxy)phenyl]ethyl]-2,2-dimethyl-piperazine-1-carboxamide] |  | 0.0001 to 1 µM |
| C[C@H](NC(=O)N1CCN(c2ncnc3[nH]c(-c4ccc(C#N)cc4)cc23)C[C@H]1C)c1cccc(OC(F)F)c1 [P-0699, (2R)-4-[6-(4-cyanophenyl)-7H-pyrrolo[2,3-d]pyrimidin-4-yl]-N-[(1S)-1-[3-(difluoromethoxy)phenyl]ethyl]-2-methyl-piperazine-1-carboxamide] |  | 0.0001 to 1 µM |
| C[C@H](NC(=O)N1CCN(c2ncnc3[nH]c(-c4ccc(F)cc4)cc23)C[C@H]1C)c1cccc(Cl)c1 [P-0701, (2R)-N-[(1S)-1-(3-chlorophenyl)ethyl]-4-[6-(4-fluorophenyl)-7H-pyrrolo[2,3-d]pyrimidin-4-yl]-2-methyl-piperazine-1-carboxamide] |  | 0.0001 to 1 µM |
| C[C@H](NC(=O)N1CCN(c2ncnc3[nH]c(-c4ccc(C#N)cc4)cc23)CC1)c1ccc(Cl)cc1 [P-0702, N-[(1S)-1-(4-chlorophenyl)ethyl]-4-[6-(4-cyanophenyl)-7H-pyrrolo[2,3-d]pyrimidin-4-yl]piperazine-1-carboxamide] |  | 0.0001 to 1 µM |
| Cc1ccc(C(C)NC(=O)N2CCN(c3ncnc4cc(-c5ccc(F)cc5)sc34)CC2)s1 (stereo not shown) [P-0703, 4-[6-(4-fluorophenyl)thieno[3,2-d]pyrimidin-4-yl]-N-[1-(5-methyl-2-thienyl)ethyl]piperazine-1-carboxamide] |  | 0.0001 to 1 µM |
| Cc1nn(C)cc1-c1cc2ncnc(N3CC4CCC3CN4C(=O)N[C@H](C)c3ccc(F)cc3)c2s1 (stereo partly drawn) [P-0704, 5-[6-(1,3-dimethylpyrazol-4-yl)thieno[3,2-d]pyrimidin-4-yl]-N-[(1R)-1-(4-fluorophenyl)ethyl]-2,5-diazabicyclo[2.2.2]octane-2-carboxamide] |  | 0.0001 to 1 µM |
| COc1cc(-c2cc3c(N4CCN(C(=O)N[C@@H](C)c5cccc(Cl)c5)[C@H](C)C4)ncnc3[nH]2)ccn1 [P-0711, (2R)-N-[(1S)-1-(3-chlorophenyl)ethyl]-4-[6-(2-methoxy-4-pyridyl)-7H-pyrrolo[2,3-d]pyrimidin-4-yl]-2-methyl-piperazine-1-carboxamide] |  | 0.0001 to 1 µM |
| Cc1ccc([C@H](C)NC(=O)N2CCN(c3ncnc4[nH]c(-c5ccc(F)cc5)cc34)CC2)cc1 [P-0713, 4-[6-(4-fluorophenyl)-7H-pyrrolo[2,3-d]pyrimidin-4-yl]-N-[(1S)-1-(p-tolyl)ethyl]piperazine-1-carboxamide] |  | 0.0001 to 1 µM |
